*1 amine or outer side, *2 acyl side, *3 side chain or, on linkers, in order; H or OH if unused. Where a SMILES comes first, the peptide text is derived from it. Bridges are numbered along the chain shown (N, C = ends). [ ]: non-standard residue; d: D form. The star is where a group is joined. hPhe(3-Cl-4-CF3) = N[C@@H](CCc1ccc(C(F)(F)F)c(Cl)c1)C(=O)O; NPrPhe(4-CF3) = CCCN[C@@H](Cc1ccc(C(F)(F)F)cc1)C(=O)O; X48 = C=CCCN([C@@H](Cc1ccc(C)cc1)C(=O)[*:2])[*:1]; NMeGly(cPent) = CN[C@H](C(=O)O)C1CCCC1; Pro(4,4-F2) = O=C(O)[C@@H]1CC(F)(F)CN1; NMeAllylGly = C=CC[C@H](NC)C(=O)O; NMeD = CN[C@@H](CC(=O)O)C(=O)O; NMeL = CN[C@@H](CC(C)C)C(=O)O; Morpholide = C1CN(*)CCO1; Ac5c = NC1(C(=O)O)CCCC1; Aze = O=C(O)[C@@H]1CCN1; Ac4c = NC1(C(=O)O)CCC1; Sar = CNCC(=O)O
Tests used:
[1] = target: GDP-bound HRAS wild-type protein (Homo sapiens, UniProt P01112); assay: Binding to HRAS by surface plasmon resonance (SPR), Single Cycle Kinetics
[2] = target: GDP-bound NRAS wild-type protein (Homo sapiens, UniProt P01111); assay: Binding to NRAS by surface plasmon resonance (SPR), Single Cycle Kinetics
[3] = SPR, GDP-bound HRAS wild-type vs GDP-bound KRAS wild-type
[4] = SPR, GDP-bound NRAS wild-type vs GDP-bound KRAS wild-type

GDP-bound HRAS wild-type protein, sequence (P01112 whole entry): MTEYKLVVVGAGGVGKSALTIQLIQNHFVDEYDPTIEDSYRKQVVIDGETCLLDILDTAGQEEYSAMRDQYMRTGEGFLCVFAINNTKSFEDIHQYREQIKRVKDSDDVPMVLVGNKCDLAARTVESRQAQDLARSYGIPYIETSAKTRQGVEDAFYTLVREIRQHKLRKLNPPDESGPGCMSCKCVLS
GDP-bound NRAS wild-type protein, sequence (P01111 whole entry): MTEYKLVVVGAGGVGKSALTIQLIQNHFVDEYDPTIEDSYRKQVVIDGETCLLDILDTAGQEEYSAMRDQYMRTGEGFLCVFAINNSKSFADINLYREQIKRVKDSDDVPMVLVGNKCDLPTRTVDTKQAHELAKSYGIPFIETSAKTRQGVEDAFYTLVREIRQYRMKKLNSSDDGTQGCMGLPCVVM

Structure (SMILES): CC[C@H](C)[C@@H]1NC(=O)[C@H](CC)N(C)C(=O)C[C@@H](C(=O)N(C)CC)N(C)C(=O)[C@H](C2CCCC2)N(C)C(=O)C2(CC(C)(C)C2)NC(=O)[C@@H]2C[C@@H](C)CN2C(=O)[C@H](CCc2ccc(C(F)(F)F)c(OC)c2)NC(=O)CN(C)C(=O)[C@H](Cc2ccc(C)cc2)N2CC/C=C\C[C@@H](C2=O)N(C)C(=O)CN(C)C1=O [PP1870]
- HRAS/KRAS (ratio of KD value for HRAS to KD value for KRAS) ([1]; KD ratio, GDP-bound HRAS wild-type vs GDP-bound KRAS wild-type, SPR): A (a compound having 10 or more and less than 20 is denoted as A)
- NRAS/KRAS (ratio of KD value for NRAS to KD value for KRAS) ([2]; KD ratio, GDP-bound NRAS wild-type vs GDP-bound KRAS wild-type, SPR): A (a compound having 10 or more and less than 20 is denoted as A)

Structure (SMILES): CCC[C@H]1C(=O)N[C@@H]([C@@H](C)CC)C(=O)N2CCC[C@H]2C(=O)N(C)[C@H]2C/C=C\CCN(C2=O)[C@@H](CC2CCCCC2)C(=O)N(C)CC(=O)N[C@@H](CCc2ccc(C(F)(F)F)c(OC)c2)C(=O)N2C[C@H](OCC)C[C@H]2C(=O)N(C)C2(CCC2)C(=O)N(C)[C@@H](C2CCCC2)C(=O)N(C)[C@H](C(=O)N(C)C)CC(=O)N1C [PP2344]
- HRAS/KRAS (ratio of KD value with respect to HRAS to KD value with respect to KRAS) [1, 3]: A (a compound having 10 or more and less than 20 is denoted as A)
- NRAS/KRAS (ratio of KD value with respect to NRAS to KD value with respect to KRAS) [2, 4]: A (a compound having 10 or more and less than 20 is denoted as A)

Structure (SMILES): CCC[C@H]1C(=O)N[C@@H]([C@@H](C)CC)C(=O)N(C)CC(=O)N(C)[C@H]2C/C=C\CCN(C2=O)[C@@H](Cc2ccc(C(F)(F)F)cc2)C(=O)N(C)CC(=O)N[C@@H](CCc2cc(Cl)c3c(ccn3C)c2)C(=O)N2C[C@H](OCC)C[C@H]2C(=O)NC2(CC(C)(C)C2)C(=O)N(C)[C@@H](C2CCCC2)C(=O)N(C)[C@H](C(=O)N(C)C)CC(=O)N1C [PP2950]
- HRAS/KRAS (ratio of KD value with respect to GDP-bound HRAS wild-type protein to KD value with respect to KRAS) ([1]; KD ratio HRAS/KRAS, class symbols): A (a compound having 10 or more and less than 20 is denoted as A)
- NRAS/KRAS (ratio of KD value with respect to GDP-bound NRAS wild-type protein to KD value with respect to KRAS) ([2]; KD ratio NRAS/KRAS, class symbols): A (a compound having 10 or more and less than 20 is denoted as A)

Structure (SMILES): CCO[C@@H]1C[C@H]2C(=O)NC3(CC(C)(C)C3)C(=O)N(C)[C@@H](C3CCCC3)C(=O)N(C)[C@H](C(=O)N(C)C)CC(=O)N(C)[C@@H](COC)C(=O)N[C@@H]([C@@H](C)CC)C(=O)N(C)CC(=O)N(C)[C@H]3C/C=C\CCN(C3=O)[C@@H](Cc3ccc(C)cc3)C(=O)N(C)CC(=O)N[C@@H](CCc3cc(F)c(C(F)(F)F)c(F)c3)C(=O)N2C1 [PP2391]
- HRAS/KRAS (ratio of KD value with respect to HRAS to KD value with respect to KRAS) [1, 3]: A (a compound having 10 or more and less than 20 is denoted as A)
- NRAS/KRAS (ratio of KD value with respect to NRAS to KD value with respect to KRAS) [2, 4]: A (a compound having 10 or more and less than 20 is denoted as A)

Structure (SMILES): CCCO[C@H](C)[C@@H]1NC(=O)[C@H](COCC)N(C)C(=O)C[C@@H](C(=O)N(C)CC)N(C)C(=O)[C@H](C2CCCC2)N(C)C(=O)C2(CC(C)(C)C2)NC(=O)[C@@H]2C[C@H](C)CN2C(=O)[C@H](CCc2cc(F)c(C(F)(F)F)c(F)c2)NC(=O)CN(C)C(=O)[C@H](Cc2ccc(C)cc2)N2CC/C=C\C[C@@H](C2=O)N(C)C(=O)CN(C)C1=O [PP2426]
- HRAS/KRAS (ratio of KD value with respect to HRAS to KD value with respect to KRAS) [1, 3]: A (a compound having 10 or more and less than 20 is denoted as A)
- NRAS/KRAS (ratio of KD value with respect to NRAS to KD value with respect to KRAS) [2, 4]: AA (a compound having 20 or more is denoted as AA)

Structure (SMILES): CCCN1C(=O)CN(C)C(=O)[C@@H]2CCN2C(=O)[C@H]([C@@H](C)CC)NC(=O)[C@H](CC(C)C)N(C)C(=O)C[C@@H](C(=O)N2CCOCC2)NC(=O)[C@H](C2CCCC2)N(C)C(=O)C2(CCC2)NC(=O)[C@@H]2CC(F)(F)CN2C(=O)[C@H](CCc2ccc(C(F)(F)F)c(Cl)c2)NC(=O)CN(C)C(=O)[C@@H]1Cc1ccc(C(F)(F)F)cc1 [PP0340] ([NMeL]I[Aze][Sar][NPrPhe(4-CF3)][Sar][hPhe(3-Cl-4-CF3)][Pro(4,4-F2)][Ac4c][NMeGly(cPent)]D-Morpholide; lactam N-11)
- HRAS/KRAS (ratio of KD for GDP-bound HRAS wild-type to KD for KRAS) ([1]; KD ratio HRAS/KRAS, SPR): B (a compound having 3 or more and less than 10 is denoted as B)
- NRAS/KRAS (ratio of KD for GDP-bound NRAS wild-type to KD for KRAS) ([2]; KD ratio NRAS/KRAS, SPR): B (a compound having 3 or more and less than 10 is denoted as B)

Structure (SMILES): C=CCCN1C(=O)[C@H](CC=C)N(C)C(=O)CN(C)C(=O)[C@H]([C@@H](C)CC)NC(=O)[C@H](CC(C)C)N(C)C(=O)C[C@@H](C(=O)N2CCOCC2)N(C)C(=O)[C@H](C2CCCC2)N(C)C(=O)C2(CCCC2)NC(=O)[C@@H]2CCCN2C(=O)[C@H](CCc2ccc(C(F)(F)F)c(Cl)c2)NC(=O)CN(C)C(=O)[C@@H]1Cc1ccc(C)cc1 [PP0140] ([NMeL]I[Sar][NMeAllylGly][X48][Sar][hPhe(3-Cl-4-CF3)]P[Ac5c][NMeGly(cPent)][NMeD]-Morpholide; lactam N-11)
- HRAS/KRAS (ratio of KD for GDP-bound HRAS wild-type to KD for KRAS) ([1]; KD ratio HRAS/KRAS, SPR): B (a compound having 3 or more and less than 10 is denoted as B)
- NRAS/KRAS (ratio of KD for GDP-bound NRAS wild-type to KD for KRAS) ([2]; KD ratio NRAS/KRAS, SPR): C (A compound having a KD ratio of 0.1 or more and less than 3 is denoted as C)
